From US20250154169A1, “COMPOUNDS AND METHODS FOR MODULATING SPLICING” (REMIX THERAPEUTICS INC., priority 2021, published 2025)
Read-outs that look alike come from different tables or passages of the source.

Legend:
Format in all cases: cell-based, human
HTT mRNA [1] = experiment: Splicing RT-qPCR gene panel, HTT canonical junction (CJ) mRNA; conditions: Homo sapiens, Tables 4A/4B, read-out: HTT (IC50, decrease in CJ mRNA, gene panel)
Method in brief: (§1)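 First, A673 cells adhered 24 h before dosing, while K562 cells were plated and dosed directly. Both lines were then exposed to compound for 24 h at 37 °C, 5% CO2, top concentration 10 uM. Finally, lysates underwent RT-qPCR of the canonical junction, with ΔΔCt-based relative quantification.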

MYB mRNA = experiment: Splicing RT-qPCR assay, MYB canonical (CJ) and alternative (AJ) junction mRNA; conditions: Homo sapiens; for AC50: read-out: MYB AJ (AC50, increase in alternative junction mRNA)
Method in brief: (§2)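 A673 or K562 cells were treated 24 h at 37 °C with an 11-point 3-fold compound dilution series (top 10 uM, DMSO ≤0.25%). Lysates went to one-step RT-qPCR measuring canonical (CJ) and alternative-exon (AJ) junction transcripts, normalized to GAPDH, GUSB or PPIA.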

HTT mRNA [2] = experiment: Splicing RT-qPCR assay, HTT canonical (CJ) and alternative (AJ) junction mRNA; conditions: Homo sapiens, A673 or K562 cells, 24 hours compound treatment; for IC50: 24 h, read-out: HTT CJ (IC50, decrease in canonical junction mRNA); for AC50: read-out: HTT AJ (AC50, increase in alternative junction mRNA)
Method in brief: as §2

SMN2 mRNA = experiment: Splicing RT-qPCR gene panel, SMN2 canonical junction (CJ) mRNA; conditions: Homo sapiens, Tables 4A/4B, read-out: SMN2 (IC50, decrease in CJ mRNA, gene panel)
Method in brief: as §1

Target C mRNA = experiment: Splicing RT-qPCR gene panel, Target C canonical junction (CJ) mRNA; conditions: Homo sapiens, Tables 4A/4B, read-out: Target C (IC50, decrease in CJ mRNA, gene panel)
Method in brief: as §1

[3] = 24 h, A673 or K562 cells, 24 hours compound treatment, RT-qPCR
[4] = 24 h, A673 or K562 cells, 24 hours compound treatment, RT-qPCR, read-out: MYB CJ (IC50, decrease in canonical junction mRNA)
[5] = Tables 4A/4B, canonical junction qPCR panel, read-out: MYB (IC50, decrease in CJ mRNA, gene panel)

IC50 (HTT mRNA [1]) | IC50 (MYB mRNA; [4]) | IC50 (MYB mRNA; [5]) | IC50 (HTT mRNA [2]) | IC50 (SMN2 mRNA) | IC50 (Target C mRNA) | SMILES | AC50 (MYB mRNA; [3]) | AC50 (HTT mRNA [2])
1 to 10 µM | 0.1 to 1 µM | < 0.1 µM | 1 to 10 µM | < 0.1 µM | 1 to 10 µM | CCn1cc2c(N3C[C@@H](C)N[C@@H](C)C3)ccc(C(=O)Nc3cc(F)c4nc(C)cn4c3)c2n1 [Compound 377, 4-[(3R,5S)-3,5-dimethylpiperazin-1-yl]-2-ethyl-N-{8-fluoro-2-methylimidazo[1,2-a]pyridin-6-yl}indazole-7-carboxamide] | 0.1 to 1 µM | 1 to 10 µM
1 to 10 µM | 0.1 to 1 µM | < 0.1 µM | 1 to 10 µM | < 0.1 µM | > 10 µM | CCn1cc2c(N3CCN(C)CC3)ccc(C(=O)Nc3cc(F)c4nc(C)cn4c3)c2n1 [Compound 378, 2-ethyl-N-{8-fluoro-2-methylimidazo[1,2-a]pyridin-6-yl}-4-(4-methylpiperazin-1-yl) indazole-7-carboxamide] | 0.1 to 1 µM | 1 to 10 µM
1 to 10 µM | 0.1 to 1 µM | 0.1 to 1 µM | 1 to 10 µM | < 0.1 µM | 1 to 10 µM | CCn1cc2c(N3CCNC4(CC4)C3)ccc(C(=O)Nc3cc(F)c4nc(C)cn4c3)c2n1 [Compound 379, 4-{4,7-diazaspiro[2.5]octan-7-yl}-2-ethyl-N-{8-fluoro-2-methylimidazo[1,2-a]pyridin-6-yl}indazole-7-carboxamide] | 1 to 10 µM | > 10 µM
1 to 10 µM | < 0.1 µM | < 0.1 µM | 1 to 10 µM | < 0.1 µM | 1 to 10 µM | CCNC1CCN(c2ccc(C(=O)Nc3cc(F)c4nc(C)cn4c3)c3nn(CC)cc23)CC1 [Compound 380, 2-ethyl-4-[4-(ethylamino)piperidin-1-yl]-N-{8-fluoro-2-methylimidazo[1,2-a]pyridin-6-yl}indazole-7-carboxamide] | < 0.1 µM | 1 to 10 µM
> 10 µM | < 0.1 µM | < 0.1 µM | > 10 µM | < 0.1 µM | > 10 µM | Cc1cn2cc(NC(=O)c3ccc(N4CC[C@@H](N)C4)c4cn(C)nc34)cc(F)c2n1 [Compound 381, 4-[(3R)-3-aminopyrrolidin-1-yl]-N-{8-fluoro-2-methylimidazo[1,2-a]pyridin-6-yl}-2-methylindazole-7-carboxamide] | < 0.1 µM | > 10 µM
1 to 10 µM | < 0.1 µM | < 0.1 µM | 1 to 10 µM | < 0.1 µM | > 10 µM | Cc1cn2cc(NC(=O)c3ccc(N4CC[C@H](N)C4)c4cn(C)nc34)cc(F)c2n1 [Compound 382, 4-[(3S)-3-aminopyrrolidin-1-yl]-N-{8-fluoro-2-methylimidazo[1,2-a]pyridin-6-yl}-2-methylindazole-7-carboxamide] | < 0.1 µM | 1 to 10 µM
> 10 µM | < 0.1 µM | < 0.1 µM | > 10 µM | < 0.1 µM | > 10 µM | Cc1cn2cc(NC(=O)c3ccc(N4CC5(N)CC4C5)c4cn(C)nc34)cc(F)c2n1 [Compound 383, 4-{4-amino-2-azabicyclo[2.1.1]hexan-2-yl}-N-{8-fluoro-2-methylimidazo[1,2-a]pyridin-6-yl}-2-methylindazole-7-carboxamide] | 0.1 to 1 µM | > 10 µM
> 10 µM | > 10 µM | > 10 µM | > 10 µM | 0.1 to 1 µM | > 10 µM | Cc1cn2cc(NC(=O)c3ccc(N4CCNCC4)c4cn(CC5(O)COC5)nc34)cc(F)c2n1 [Compound 384, N-{8-fluoro-2-methylimidazo[1,2-a]pyridin-6-yl}-2-[(3-hydroxyoxetan-3-yl)methyl]-4-(piperazin-1-yl) indazole-7-carboxamide] | 1 to 10 µM | > 10 µM
> 10 µM | > 10 µM | > 10 µM | > 10 µM | > 10 µM | > 10 µM | COCCOc1nc2c(C(=O)Nc3cc(F)c4nc(C)cn4c3)ccc(N3CCNCC3)c2o1 [Compound 385, N-{8-fluoro-2-methylimidazo[1,2-a]pyridin-6-yl}-2-(2-methoxyethoxy)-7-(piperazin-1-yl)-1,3-benzoxazole-4-carboxamide] | > 10 µM | > 10 µM
> 10 µM | 0.1 to 1 µM | 0.1 to 1 µM | > 10 µM | < 0.1 µM | > 10 µM | Cn1cc2c(N3CCNCC3)ccc(C(=O)Nc3cc(F)c4nc(CO)cn4c3)c2n1 [Compound 389, N-[8-fluoro-2-(hydroxymethyl)imidazo[1,2-a]pyridin-6-yl]-2-methyl-4-(piperazin-1-yl) indazole-7-carboxamide; trifluoroacetic acid] | 1 to 10 µM | > 10 µM
> 10 µM | 0.1 to 1 µM | 0.1 to 1 µM | > 10 µM | < 0.1 µM | > 10 µM | CCn1cc2c(N3CC[C@@H](N(C)C)C3)ccc(C(=O)Nc3cc(F)c4nc(C)cn4c3)c2n1 [Compound 407, (R)-4-(3-(dimethylamino)pyrrolidin-1-yl)-2-ethyl-N-(8-fluoro-2-methylimidazo[1,2-a]pyridin-6-yl)-2H-indazole-7-carboxamide] | 0.1 to 1 µM | > 10 µM
> 10 µM | 0.1 to 1 µM | 0.1 to 1 µM | > 10 µM | < 0.1 µM | > 10 µM | CCn1cc2c(N3CC[C@H](N(C)C)C3)ccc(C(=O)Nc3cc(F)c4nc(C)cn4c3)c2n1 [Compound 408, (S)-4-(3-(dimethylamino)pyrrolidin-1-yl)-2-ethyl-N-(8-fluoro-2-methylimidazo[1,2-a]pyridin-6-yl)-2H-indazole-7-carboxamide] | 0.1 to 1 µM | > 10 µM
> 10 µM | 0.1 to 1 µM | 0.1 to 1 µM | > 10 µM | < 0.1 µM | > 10 µM | CCn1cc2c(N3CC[C@@H](NC4CC4)C3)ccc(C(=O)Nc3cc(F)c4nc(C)cn4c3)c2n1 [Compound 409, (R)-4-(3-(cyclopropylamino)pyrrolidin-1-yl)-2-ethyl-N-(8-fluoro-2-methylimidazo[1,2-a]pyridin-6-yl)-2H-indazole-7-carboxamide] | < 0.1 µM | > 10 µM
> 10 µM | 0.1 to 1 µM | 0.1 to 1 µM | > 10 µM | < 0.1 µM | > 10 µM | CCn1cc2c(N3CC[C@H](NC4CC4)C3)ccc(C(=O)Nc3cc(F)c4nc(C)cn4c3)c2n1 [Compound 410, (S)-4-(3-(cyclopropylamino)pyrrolidin-1-yl)-2-ethyl-N-(8-fluoro-2-methylimidazo[1,2-a]pyridin-6-yl)-2H-indazole-7-carboxamide] | 1 to 10 µM | > 10 µM
1 to 10 µM | < 0.1 µM | < 0.1 µM | 1 to 10 µM | < 0.1 µM | > 10 µM | Cc1cn2cc(NC(=O)c3ccc(N4CCNCC4)c4cn(CC#N)nc34)cc(F)c2n1 [Compound 413, 2-(cyanomethyl)-N-{8-fluoro-2-methylimidazo[1,2-a]pyridin-6-yl}-4-(piperazin-1-yl) indazole-7-carboxamide] | < 0.1 µM | 1 to 10 µM
> 10 µM | 1 to 10 µM | 1 to 10 µM | > 10 µM | 1 to 10 µM | > 10 µM | Cc1cn2cc(NC(=O)c3ccc(N4CCNCC4)c4cn(CC56CC(O)(C5)C6)nc34)cc(F)c2n1 [Compound 414, N-{8-fluoro-2-methylimidazo[1,2-a]pyridin-6-yl}-2-({3-hydroxybicyclo[1.1.1]pentan-1-yl}methyl)-4-(piperazin-1-yl) indazole-7-carboxamide 2,2,2-trifluoroacetate] | 1 to 10 µM | > 10 µM
0.1 to 1 µM | 0.1 to 1 µM | 0.1 to 1 µM | 0.1 to 1 µM | 0.1 to 1 µM | 0.1 to 1 µM | CCn1cc2c(N3CCN4C(=O)OCC4C3)ccc(C(=O)Nc3cc(F)c4nc(C)cn4c3)c2n1 (stereo not shown) [Compound 415, 2-ethyl-N-{8-fluoro-2-methylimidazo[1,2-a]pyridin-6-yl}-4-{3-oxo-tetrahydro-1H-[1,3]oxazolo[3,4-a]pyrazin-7-yl}indazole-7-carboxamide] | 0.1 to 1 µM | 0.1 to 1 µM
